The results in this text go back to patent publication US11180461B2, “Triazoles as Kv3 inhibitors” (AUTIFONY THERAPEUTICS LIMITED, priority 2012, dated 2021).

The experiment addresses T1, human Kv3.3 channels (hKv3.3) (Homo sapiens, UniProt Q14003).
T1 construct: expressed in transfected cells
T1 sequence (Q14003 1-757): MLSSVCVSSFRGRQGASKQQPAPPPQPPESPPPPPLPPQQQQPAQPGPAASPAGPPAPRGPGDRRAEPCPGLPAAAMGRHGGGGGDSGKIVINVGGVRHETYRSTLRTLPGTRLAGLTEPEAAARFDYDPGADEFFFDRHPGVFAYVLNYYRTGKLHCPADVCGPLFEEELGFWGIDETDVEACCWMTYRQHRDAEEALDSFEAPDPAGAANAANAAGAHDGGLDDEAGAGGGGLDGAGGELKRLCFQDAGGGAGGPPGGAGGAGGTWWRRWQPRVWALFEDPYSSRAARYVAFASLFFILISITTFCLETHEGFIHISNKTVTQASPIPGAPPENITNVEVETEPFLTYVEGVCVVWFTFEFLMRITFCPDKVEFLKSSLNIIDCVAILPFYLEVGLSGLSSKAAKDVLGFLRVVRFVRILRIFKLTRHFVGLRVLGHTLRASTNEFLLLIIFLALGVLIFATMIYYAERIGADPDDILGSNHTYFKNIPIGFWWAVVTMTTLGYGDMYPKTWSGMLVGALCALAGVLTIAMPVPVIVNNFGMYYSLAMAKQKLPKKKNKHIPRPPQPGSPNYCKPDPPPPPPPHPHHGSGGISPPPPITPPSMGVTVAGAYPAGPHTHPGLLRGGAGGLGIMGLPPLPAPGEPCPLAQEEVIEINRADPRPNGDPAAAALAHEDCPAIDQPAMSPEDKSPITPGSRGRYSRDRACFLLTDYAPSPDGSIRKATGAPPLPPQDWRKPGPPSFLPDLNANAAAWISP
As to the kind of experiment: hKv3.3 recombinant cell assay, IonWorks Quattro planar array electrophysiology. In kind it is cell-based. Particulars: 12.5 micromolar; mean, n=2. An excerpt:
The ability of the compounds of the invention to modulate the voltage-gated potassium channel subtypes Kv3.2/3.1 may be determined using the following assay. The assay may also be used to determine the ability of compounds of the invention to modulate the voltage-gated potassium channel Kv3.3. Analogous methods may be used to investigate the ability of the compounds of the invention to modulate other channel subtypes.
To assess compound effects on human Kv3.3 channels (hKv3.3), a stable cell line expressing human Kv3.3 channels was created by transfecting Chinese Hamster Ovary (CHO)—K1 cells with a pBacMire_KCNC-3 vector. Cells were cultured in DMEM/F12 (Gibco) supplemented with 10% Foetal Bovine Serum (Gibco), 1× non-essential amino acids (Invitrogen) and geneticin (G418) 400 microg/mL. Cells were grown and maintained at 37° C. in a humidified environment containing 5% CO2 in air. […]
Experiments were conducted at room temperature using IonWorks Quattro™ planar array electrophysiology technology (Molecular Devices Corp.) with PatchPlate™ PPC. […] Planar electrode hole resistances (Rp) were determined by applying a 10 mV voltage step across each well. […] Test pulses protocol may be performed in the absence (pre-read) and presence (post-read) of the test compound. Pre- and post-reads may be separated by the compound addition followed by a 3 minute incubation. […]

SMILES strings stand for the structures.

Turning to `Cc1ccc(Oc2ccc(-n3c(C)n[nH]c3=O)cn2)c2c1OCC21CC1` [Example 14, 5-methyl-4-{6-[(7-methylspiro[1-benzofuran-3,1′-cyclopropan]-4-yl)oxy]pyridin-3-yl}-2,4-dihydro-3H-1,2,4-triazol-3-one], the “increase in human Kv3.3 peak current at 0 mV” value turned out to be 75%.
